Laboratory results from ChEMBL document CHEMBL1157035, “Synthesis and biological evaluation of water-soluble organogermanium” (Eur J Med Chem, 2010).
Activity calls are given as the source filed them. The rule behind the calls is not given here.

Key:
Format in all cases: functional, organism-based
Mus musculus [1] = test: Immunoregulatory activity in ICR mouse assessed as increase in serum IFN-gamma level at 100 mg/kg, po after 12 hrs by ELISA; set-up: dose 100 mg/kg
Mus musculus [2] = test: Immunoregulatory activity in ICR mouse assessed as increase in serum IFN-gamma level at 100 mg/kg, po after 12 to 24 hrs by ELISA; set-up: dose 100 mg/kg
Mus musculus [3] = test: Immunoregulatory activity in ICR mouse assessed as increase in serum IFN-gamma level at 300 mg/kg, po after 24 hrs by ELISA; set-up: dose 300 mg/kg
Mus musculus [4] = test: Immunoregulatory activity in po dosed ICR mouse assessed as increase in serum IFN-gamma level after 24 hrs by ELISA
Mus musculus [5] = test: Immunoregulatory activity in ICR mouse assessed as increase in serum IFN-gamma level at 100 mg/kg, po after 24 hrs by ELISA; set-up: dose 100 mg/kg

Substance	Activity (Mus musculus [1])	Activity (Mus musculus [2])	Activity (Mus musculus [3])	Activity (Mus musculus [4])	Activity (Mus musculus [5])
6-O-[3-(trimethylgermyI)propyl]-beta-D-glucopyranoside	inactive	Active	600 pg/mL	Dose-dependent effect	
GERMANIUM SESQUIOXIDE	inactive	Active			320 pg/mL
